Measurements as given in the supplement of paper PMC9663587.

Key:
[1] = compound: CCN1CCN(Cc2ccc(Nc3ncc(F)c(-c4cc(F)c5nc(C)n(C(C)C)c5c4)n3)nc2)CC1; experiment: increase in dead-cell fraction, 72 h; higher = more death;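 also: breast cancer cell lines in 384-well plates, stained with Hoechst plus LIVE/DEAD far red dye and imaged, cells above an LDR intensity threshold counted dead, Hoechst-negative corpses included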
YKL-5-124 = compound: C=CC(=O)Nc1ccc(C(=O)Nc2[nH]nc3c2CN(C(=O)N[C@H](CN(C)C)c2ccccc2)C3(C)C)cc1 [YKL-5-124]; experiment: as above
BSJ-03-123 = compound: CC(=O)c1c(C)c2cnc(Nc3ccc(N4CCN(CCOCCOCCOCCNC(=O)COc5cccc6c5C(=O)N(C5CCC(=O)NC5=O)C6=O)CC4)cn3)nc2n(C2CCCC2)c1=O [BSJ-03-123]; experiment: as above
Neratinib/HKI272 = compound: CCOc1cc2ncc(C#N)c(Nc3ccc(OCc4ccccn4)c(Cl)c3)c2cc1NC(=O)/C=C/CN(C)C [Neratinib/HKI272]; experiment: as above
LEE011/Ribociclib = compound: CN(C)C(=O)c1cc2cnc(Nc3ccc(N4CCNCC4)cn3)nc2n1C1CCCC1 [LEE011/Ribociclib]; experiment: as above
Flavopiridol = compound: CN1CC[C@H](c2c(O)cc(O)c3c(=O)cc(-c4ccccc4Cl)oc23)[C@H](O)C1 [Flavopiridol]; experiment: as above
THZ1 = compound: CN(C)C/C=C/C(=O)Nc1ccc(C(=O)Nc2cccc(Nc3ncc(Cl)c(-c4c[nH]c5ccccc45)n3)c2)cc1 [THZ1]; experiment: as above
THZ531 = compound: CN(C)C/C=C/C(=O)Nc1ccc(C(=O)N2CCC[C@@H](Nc3ncc(Cl)c(-c4c[nH]c5ccccc45)n3)C2)cc1 [THZ531]; experiment: as above
[2] = compound: CCc1cnn2c(NCc3ccc[n+]([O-])c3)cc(N3CCCC[C@H]3CCO)nc12; experiment: as above
[3] = compound: CC(=O)c1c(C)c2cnc(Nc3ccc(N4CCNCC4)cn3)nc2n(C2CCCC2)c1=O; experiment: as above
Luminespib/NVP-AUY922 = compound: CCNC(=O)c1noc(-c2cc(C(C)C)c(O)cc2O)c1-c1ccc(CN2CCOCC2)cc1 [Luminespib/NVP-AUY922]
Saracatinib/AZD0530 = compound: CN1CCN(CCOc2cc(OC3CCOCC3)c3c(Nc4c(Cl)ccc5c4OCO5)ncnc3c2)CC1 [Saracatinib/AZD0530]
BSJ-01-175 = compound: CN(C)C/C=C/C(=O)Nc1ccc(O[C@@H]2CCC[C@@H](Nc3ncc(Cl)c(-c4c[nH]c5ccccc45)n3)C2)cc1 [BSJ-01-175]
THZ-P1-2 = compound: CN(C)C/C=C/C(=O)NC1=CC=C(C=C1)C(=O)NC2=CC=CC(=C2)NC3=NC=NC(=C3)C4=CNC5=CC=CC=C54 [THZ-P1-2]
Ceritinib/LDK378 = compound: Cc1cc(Nc2ncc(Cl)c(Nc3ccccc3S(=O)(=O)C(C)C)n2)c(OC(C)C)cc1C1CCNCC1 [Ceritinib/LDK378]
[4] = compound: CCCCOc1c(C(=O)c2c(F)cc(C)cc2F)c[nH]c2nncc1-2
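For GR50, 72 h in this document: breast cancer and non-malignant breast epithelial cell lines, Deep Dye Drop or Dye Drop imaging, nine half-log doses, GR normalized to time-zero plates and DMSO-only controls.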

## T47D
[1]; 0.001 µM
  increase in dead-cell fraction: -0.0007
[1]; 0.003162 µM
  increase in dead-cell fraction: 0.0004
[1]; 0.01 µM
  increase in dead-cell fraction: 0.0119
[1]; 0.03162 µM
  increase in dead-cell fraction: 0.0119
[1]; 0.1 µM
  increase in dead-cell fraction: 0.0081
[1]; 0.3162 µM
  increase in dead-cell fraction: 0.0178
[1]; 1 µM
  increase in dead-cell fraction: 0.0167
[1]; 3.162 µM
  increase in dead-cell fraction: 0.0642
[1]; 10 µM
  increase in dead-cell fraction: 0.104
YKL-5-124; 0.001 µM
  increase in dead-cell fraction: 0.0113
YKL-5-124; 0.003162 µM
  increase in dead-cell fraction: 0.0129
YKL-5-124; 0.01 µM
  increase in dead-cell fraction: 0.0177
YKL-5-124; 0.03162 µM
  increase in dead-cell fraction: 0.0322
YKL-5-124; 0.1 µM
  increase in dead-cell fraction: 0.0269
YKL-5-124; 0.3162 µM
  increase in dead-cell fraction: 0.0156
YKL-5-124; 1 µM
  increase in dead-cell fraction: 0.0308
YKL-5-124; 3.162 µM
  increase in dead-cell fraction: 0.0206
YKL-5-124; 10 µM
  increase in dead-cell fraction: 0.0574
BSJ-03-123; 0.001 µM
  increase in dead-cell fraction: 0.0097
BSJ-03-123; 0.003162 µM
  increase in dead-cell fraction: 0.0074
BSJ-03-123; 0.01 µM
  increase in dead-cell fraction: 0.0101
BSJ-03-123; 0.03162 µM
  increase in dead-cell fraction: 0.0084
BSJ-03-123; 0.1 µM
  increase in dead-cell fraction: 0.019
BSJ-03-123; 0.3162 µM
  increase in dead-cell fraction: 0.021
BSJ-03-123; 1 µM
  increase in dead-cell fraction: 0.0319
BSJ-03-123; 3.162 µM
  increase in dead-cell fraction: 0.022
BSJ-03-123; 10 µM
  increase in dead-cell fraction: 0.0281
Neratinib/HKI272; 0.0003162 µM
  increase in dead-cell fraction: -0.0033
Neratinib/HKI272; 0.001 µM
  increase in dead-cell fraction: 0.0054
Neratinib/HKI272; 0.003162 µM
  increase in dead-cell fraction: 0.0022
Neratinib/HKI272; 0.01 µM
  increase in dead-cell fraction: 0.0045
Neratinib/HKI272; 0.03162 µM
  increase in dead-cell fraction: 0.0043
Neratinib/HKI272; 0.1 µM
  increase in dead-cell fraction: 0.0001
Neratinib/HKI272; 0.3162 µM
  increase in dead-cell fraction: 0.0101
Neratinib/HKI272; 1 µM
  increase in dead-cell fraction: 0.0084
Neratinib/HKI272; 3.162 µM
  increase in dead-cell fraction: 0.0225
LEE011/Ribociclib; 0.001 µM
  increase in dead-cell fraction: 0.0085
LEE011/Ribociclib; 0.003162 µM
  increase in dead-cell fraction: 0.0069
LEE011/Ribociclib; 0.01 µM
  increase in dead-cell fraction: 0.0061
LEE011/Ribociclib; 0.03162 µM
  increase in dead-cell fraction: 0.0139
LEE011/Ribociclib; 0.1 µM
  increase in dead-cell fraction: 0.0374
LEE011/Ribociclib; 0.3162 µM
  increase in dead-cell fraction: 0.0392
LEE011/Ribociclib; 1 µM
  increase in dead-cell fraction: 0.0267
LEE011/Ribociclib; 3.162 µM
  increase in dead-cell fraction: 0.0405
LEE011/Ribociclib; 10 µM
  increase in dead-cell fraction: 0.0242
Flavopiridol; 0.0001 µM
  increase in dead-cell fraction: 0.0101
Flavopiridol; 0.0003162 µM
  increase in dead-cell fraction: -0.0037
Flavopiridol; 0.001 µM
  increase in dead-cell fraction: 0.0027
Flavopiridol; 0.003162 µM
  increase in dead-cell fraction: 0.0005
Flavopiridol; 0.01 µM
  increase in dead-cell fraction: 0.0011
Flavopiridol; 0.03162 µM
  increase in dead-cell fraction: -0.0028
Flavopiridol; 0.1 µM
  increase in dead-cell fraction: 0.0027
Flavopiridol; 0.3162 µM
  increase in dead-cell fraction: 0.0159
Flavopiridol; 1 µM
  increase in dead-cell fraction: 0.0323
THZ1; 0.0001 µM
  increase in dead-cell fraction: -0.0018
THZ1; 0.0003162 µM
  increase in dead-cell fraction: 0.0029
THZ1; 0.001 µM
  increase in dead-cell fraction: 0.0039
THZ1; 0.003162 µM
  increase in dead-cell fraction: 0.005
THZ1; 0.01 µM
  increase in dead-cell fraction: -0.0043
THZ1; 0.03162 µM
  increase in dead-cell fraction: 0.0328
THZ1; 0.1 µM
  increase in dead-cell fraction: 0.0197
THZ1; 0.3162 µM
  increase in dead-cell fraction: 0.0299
THZ1; 1 µM
  increase in dead-cell fraction: 0.0416
THZ531; 0.0001 µM
  increase in dead-cell fraction: -0.0029
THZ531; 0.0003162 µM
  increase in dead-cell fraction: 0.0085
THZ531; 0.001 µM
  increase in dead-cell fraction: -0.0033
THZ531; 0.003162 µM
  increase in dead-cell fraction: 0.0028
THZ531; 0.01 µM
  increase in dead-cell fraction: -0.0045
THZ531; 0.03162 µM
  increase in dead-cell fraction: 0.0014
THZ531; 0.1 µM
  increase in dead-cell fraction: 0.01
THZ531; 0.3162 µM
  increase in dead-cell fraction: 0.035
THZ531; 1 µM
  increase in dead-cell fraction: 0.0357
[2]; 0.0001 µM
  increase in dead-cell fraction: -0.0001
[2]; 0.0003162 µM
  increase in dead-cell fraction: 0.0027
[2]; 0.001 µM
  increase in dead-cell fraction: -0.0018
[2]; 0.003162 µM
  increase in dead-cell fraction: -0.0021
[2]; 0.01 µM
  increase in dead-cell fraction: 0.0073
[2]; 0.03162 µM
  increase in dead-cell fraction: 0.0576
[2]; 0.1 µM
  increase in dead-cell fraction: 0.106
[2]; 0.3162 µM
  increase in dead-cell fraction: 0.138
[2]; 1 µM
  increase in dead-cell fraction: 0.127
[3]; 0.0003162 µM
  increase in dead-cell fraction: 0.0016
[3]; 0.001 µM
  increase in dead-cell fraction: -0.001
[3]; 0.003162 µM
  increase in dead-cell fraction: 0.0022
[3]; 0.01 µM
  increase in dead-cell fraction: 0.0006
[3]; 0.03162 µM
  increase in dead-cell fraction: 0.0078
[3]; 0.1 µM
  increase in dead-cell fraction: 0.0116
[3]; 0.3162 µM
  increase in dead-cell fraction: 0.0158
[3]; 1 µM
  increase in dead-cell fraction: 0.0154
[3]; 3.162 µM
  increase in dead-cell fraction: 0.0097
Luminespib/NVP-AUY922
  GR50, 72 h: 0.00607 µM
Saracatinib/AZD0530
  GR50, 72 h: 3.95 µM
BSJ-01-175
  GR50, 72 h: 0.189 µM
THZ-P1-2
  GR50, 72 h: 2.22 µM
Ceritinib/LDK378
  GR50, 72 h: 1.56 µM
[4]
  GR50, 72 h: 0.0149 µM
